Laboratory results published in ChEMBL document CHEMBL3994568 (2016).
Values after ≈ are worked out from the molar mass of the structure shown.

Columns and labels:
Format in all cases: functional
Bacillus = test: Antibacterial activity against Bacillus proteus ATCC 13315 after 24 hrs by two-fold microbroth dilution method; details: ATCC 13315, 24 h
Escherichia coli = test: Antibacterial activity against Escherichia coli JM109 after 24 hrs by two-fold microbroth dilution method; details: JM109, 24 h
Pseudomonas aeruginosa = test: Antibacterial activity against Pseudomonas aeruginosa ATCC 27853 after 24 hrs by two-fold microbroth dilution method; details: ATCC 27853, 24 h
[1] = Antibacterial activity against Eberthella typhosa ATCC 14028 after 24 hrs by two-fold microbroth dilution method; details: ATCC 14028, 24 h
Staphylococcus aureus [2] = test: Antibacterial activity against methicillin-resistant Staphylococcus aureus N315 after 24 hrs by two-fold microbroth dilution method; details: N315, 24 h
Staphylococcus aureus [3] = test: Antibacterial activity against Staphylococcus aureus ATCC 25923 after 24 hrs by two-fold microbroth dilution method; details: ATCC 25923, 24 h
Bacillus spizizenii = test: Antibacterial activity against Bacillus subtilis ATCC 6633 after 24 hrs by two-fold microbroth dilution method; details: ATCC 6633, 24 h
Micrococcus luteus = test: Antibacterial activity against Micrococcus luteus ATCC 4698 after 24 hrs by two-fold microbroth dilution method; details: NCTC 2665, 24 h
Cyberlindnera jadinii = test: Antifungal activity against Candida utilis ATCC 9950 after 24 hrs by two-fold microbroth dilution method; details: Williopsis jadinii, ATCC 9950, 24 h
Aspergillus flavus = test: Antifungal activity against Aspergillus flavus ATCC 204304 after 24 hrs by two-fold microbroth dilution method; details: ATCC 204304, 24 h
Saccharomyces cerevisiae = test: Antifungal activity against Saccharomyces cerevisiae ATCC 9763 after 24 hrs by two-fold microbroth dilution method; details: ATCC 9763, 24 h
Candida albicans = test: Antifungal activity against Candida albicans ATCC 10231 after 24 hrs by two-fold microbroth dilution method; details: ATCC 10231, 24 h
Pichia norvegensis = test: Antifungal activity against Candida mycoderma ATCC 9888 after 24 hrs by two-fold microbroth dilution method; details: ATCC 9888, 24 h

Compound	MIC (Bacillus)	MIC (Escherichia coli)	MIC (Pseudomonas aeruginosa)	MIC [1]	MIC (Staphylococcus aureus [2])	MIC (Staphylococcus aureus [3])	MIC (Bacillus spizizenii)	MIC (Micrococcus luteus)	MIC (Cyberlindnera jadinii)	MIC (Aspergillus flavus)	MIC (Saccharomyces cerevisiae)	MIC (Candida albicans)	MIC (Pichia norvegensis)
CCCCCCCCCCCCCCCCn1c2ccc(C(=O)CCl)cc2c2cc(C(=O)CCl)ccc21	256 µg/mL (≈ 470 µM)	256 µg/mL (≈ 470 µM)	256 µg/mL (≈ 470 µM)	512 µg/mL (≈ 940 µM)	256 µg/mL (≈ 470 µM)	128 µg/mL (≈ 235 µM)	256 µg/mL (≈ 470 µM)	256 µg/mL (≈ 470 µM)	256 µg/mL (≈ 470 µM)	256 µg/mL (≈ 470 µM)	512 µg/mL (≈ 940 µM)	512 µg/mL (≈ 940 µM)	256 µg/mL (≈ 470 µM)
CCCCCCCn1c2ccc(C(=O)CCl)cc2c2cc(C(=O)CCl)ccc21	512 µg/mL (≈ 1220 µM)	512 µg/mL (≈ 1220 µM)	512 µg/mL (≈ 1220 µM)	512 µg/mL (≈ 1220 µM)	512 µg/mL (≈ 1220 µM)	512 µg/mL (≈ 1220 µM)	512 µg/mL (≈ 1220 µM)	512 µg/mL (≈ 1220 µM)	512 µg/mL (≈ 1220 µM)	512 µg/mL (≈ 1220 µM)	512 µg/mL (≈ 1220 µM)	512 µg/mL (≈ 1220 µM)	256 µg/mL (≈ 612 µM)
CCCCCCCCCCn1c2ccc(C(=O)CCl)cc2c2cc(C(=O)CCl)ccc21	256 µg/mL (≈ 556 µM)	512 µg/mL (≈ 1110 µM)	128 µg/mL (≈ 278 µM)	256 µg/mL (≈ 556 µM)	512 µg/mL (≈ 1110 µM)	256 µg/mL (≈ 556 µM)	256 µg/mL (≈ 556 µM)	128 µg/mL (≈ 278 µM)	256 µg/mL (≈ 556 µM)	512 µg/mL (≈ 1110 µM)	256 µg/mL (≈ 556 µM)	256 µg/mL (≈ 556 µM)	256 µg/mL (≈ 556 µM)
CCCCCCn1c2ccc(C(=O)CCl)cc2c2cc(C(=O)CCl)ccc21	16 µg/mL (≈ 39.6 µM)	512 µg/mL (≈ 1270 µM)	16 µg/mL (≈ 39.6 µM)	256 µg/mL (≈ 633 µM)	512 µg/mL (≈ 1270 µM)	512 µg/mL (≈ 1270 µM)	512 µg/mL (≈ 1270 µM)	256 µg/mL (≈ 633 µM)	256 µg/mL (≈ 633 µM)	512 µg/mL (≈ 1270 µM)	512 µg/mL (≈ 1270 µM)	512 µg/mL (≈ 1270 µM)	256 µg/mL (≈ 633 µM)
CCCCCCCCCCCCCCCCCCn1c2ccc(C(=O)CCl)cc2c2cc(C(=O)CCl)ccc21	512 µg/mL (≈ 894 µM)	256 µg/mL (≈ 447 µM)	256 µg/mL (≈ 447 µM)	256 µg/mL (≈ 447 µM)	256 µg/mL (≈ 447 µM)	128 µg/mL (≈ 224 µM)	512 µg/mL (≈ 894 µM)	512 µg/mL (≈ 894 µM)	512 µg/mL (≈ 894 µM)	256 µg/mL (≈ 447 µM)	256 µg/mL (≈ 447 µM)	512 µg/mL (≈ 894 µM)	512 µg/mL (≈ 894 µM)
CCCCCCCCCCn1c2ccc(-c3csc(N)n3)cc2c2cc(-c3csc(N)n3)ccc21	128 µg/mL (≈ 254 µM)	256 µg/mL (≈ 508 µM)	512 µg/mL (≈ 1020 µM)	512 µg/mL (≈ 1020 µM)	128 µg/mL (≈ 254 µM)	128 µg/mL (≈ 254 µM)	512 µg/mL (≈ 1020 µM)	256 µg/mL (≈ 508 µM)	256 µg/mL (≈ 508 µM)	128 µg/mL (≈ 254 µM)	256 µg/mL (≈ 508 µM)	128 µg/mL (≈ 254 µM)	128 µg/mL (≈ 254 µM)
CCCCn1c2ccc(-c3csc(N)n3)cc2c2cc(-c3csc(N)n3)ccc21	128 µg/mL (≈ 305 µM)	128 µg/mL (≈ 305 µM)	64 µg/mL (≈ 153 µM)	128 µg/mL (≈ 305 µM)	256 µg/mL (≈ 610 µM)	128 µg/mL (≈ 305 µM)	256 µg/mL (≈ 610 µM)	128 µg/mL (≈ 305 µM)	256 µg/mL (≈ 610 µM)	256 µg/mL (≈ 610 µM)	128 µg/mL (≈ 305 µM)	128 µg/mL (≈ 305 µM)	64 µg/mL (≈ 153 µM)
CCCCCCn1c2ccc(-c3csc(N)n3)cc2c2cc(-c3csc(N)n3)ccc21	256 µg/mL (≈ 572 µM)	128 µg/mL (≈ 286 µM)	32 µg/mL (≈ 71.5 µM)	256 µg/mL (≈ 572 µM)	64 µg/mL (≈ 143 µM)	32 µg/mL (≈ 71.5 µM)	512 µg/mL (≈ 1140 µM)	256 µg/mL (≈ 572 µM)	256 µg/mL (≈ 572 µM)	512 µg/mL (≈ 1140 µM)	256 µg/mL (≈ 572 µM)	256 µg/mL (≈ 572 µM)	128 µg/mL (≈ 286 µM)
CCCCn1c2ccc(C(=O)CCl)cc2c2cc(C(=O)CCl)ccc21	256 µg/mL (≈ 680 µM)	512 µg/mL (≈ 1360 µM)	512 µg/mL (≈ 1360 µM)	512 µg/mL (≈ 1360 µM)	256 µg/mL (≈ 680 µM)	256 µg/mL (≈ 680 µM)	256 µg/mL (≈ 680 µM)	256 µg/mL (≈ 680 µM)	128 µg/mL (≈ 340 µM)	256 µg/mL (≈ 680 µM)	512 µg/mL (≈ 1360 µM)	512 µg/mL (≈ 1360 µM)	128 µg/mL (≈ 340 µM)
CCCCCCCCCCCCCCCCCCn1c2ccc(-c3csc(N)n3)cc2c2cc(-c3csc(N)n3)ccc21	256 µg/mL (≈ 416 µM)	128 µg/mL (≈ 208 µM)	512 µg/mL (≈ 831 µM)	256 µg/mL (≈ 416 µM)	512 µg/mL (≈ 831 µM)	256 µg/mL (≈ 416 µM)	256 µg/mL (≈ 416 µM)	512 µg/mL (≈ 831 µM)	256 µg/mL (≈ 416 µM)	256 µg/mL (≈ 416 µM)	256 µg/mL (≈ 416 µM)	256 µg/mL (≈ 416 µM)	512 µg/mL (≈ 831 µM)
CCn1cc(C(=O)O)c(=O)c2cc(F)c(N3CCNCC3)cc21 [NORFLOXACIN]	4 µg/mL (≈ 12.5 µM)	16 µg/mL (≈ 50.1 µM)	2 µg/mL (≈ 6.26 µM)	4 µg/mL (≈ 12.5 µM)	8 µg/mL (≈ 25.1 µM)	2 µg/mL (≈ 6.26 µM)	1 µg/mL (≈ 3.13 µM)	2 µg/mL (≈ 6.26 µM)					
